This is an account of results in US20110212100A1, “METHODS FOR MODULATING DEVELOPMENT AND EXPANSION OF IL-17 EXPRESSING CELLS” (priority 2007, published 2011).

One series has as its system Jurkat T cells. Put plainly: Apoptosis of Jurkat T cells (Annexin V / PI). It is filed as cell-based. To be noted: 100 nM HF, 30 hours. As for the experimental part:
The non-specific cytoxicity of HF in both normal and transformed T-cells at high doses was evaluated. Anti-CD3/anti-CD28 activated primary T cells were harvested 6 days after activation and cultured in the presence of IL-2 with or without HF (100 nM). As a positive control, some T cells were cultured without IL-2 to induce apoptosis (FIG. 3A). Jurkat T cells, a transformed T cell leukemia line, were cultured in complete medium with or without HF (100 nM) as indicated (FIG. 3B). Both primary and Jurkat T cells were cultured for 30 hours and programmed cell death, i.e. apoptosis, was determined by Annexin V staining and propidium iodide (PI) uptake and cells were analyzed by flow cytometry. The percent of apoptotic T cells at each time point was plotted and was defined as Annexin V^+ PI^−. […] In further experiments, titrating amounts of HF were added to primary T cells and apoptosis was determine as above at the indicated time points. At 100 nM HF, but not 30 nM or lower, generalized T-cell apoptosis was observed (FIG. 3C).

Series [1] relates to amino acid response (AAR) pathway: eIF2α, ATF4. Briefly: eIF2α phosphorylation and ATF4 protein levels in T cells (immunoblot). It is filed as cell-based, mouse. As for the experimental part:
Whole cell lysates were prepared 4 hours-post TCR activation and immunoblotting was performed with the indicated antibodies. ATF4 protein is indicated by arrowhead. NS-non-specific band.
FIG. 12E is an illustration depicting immunoblot analysis of purified CD4^+ CD25^− T cells activated through the TCR for the indicated times without exogenous cytokines in the presence of either 10 nM MAZ1310 or 10 nM HF as indicated. Whole cells lysates were prepared during the timecourse and immunoblotting was performed.
Western blotting: Whole cell lysates were generated from T cells activated for the indicated times. For STAT3 and Smad2/3 western blots cells were harvested, washed in PBS and lysed in 50 mM Tris, pH 7.4, 0.1% SDS, 1% Triton-X100, 140 mM NaCl, 1 mM EDTA, 1 mM EGTA supplemented with protease inhibitors tablets (Roche-Germany), 1 mM NaF and 1 mM Na3VO4. For eIF2α and ATF4 western blots, cells were harvested as above and lysed in 50 mM Tris, pH 7.4, 2% SDS, 20% glycerol and 2 mM EDTA supplemented with protease and phosphatase inhibitors as above. All lysates were cleared via centrifugation and 15-30 μg of protein was resolved by SDS-PAGE. Protein was transferred to nitrocellulose membranes, blocked and blotted using specific antibodies. Antibodies used for western blot analysis were anti-phospho-Smad2, anti-STAT3 (pY705), anti-STAT3, anti-eIF2α^pS51, anti-eIF2α, anti-GCN2^pT898, anti-GCN2 (all from cell signaling technology, Danvers, Mass.). Anti-ATF4/CREB2 and anti-β-actin were purchased from Santa Cruz biotechnology (Santa Cruz, Calif.). HRP-conjugated secondary antibodies were all purchased from Sigma, with the exception of HRP-conjugated anti-armenian hamster antibody (Jackson Immunoresearch—West Grove, Pa.).
To address directly whether HF activates the AAR pathway, eIF2a phosphorylation and ATF4 protein levels in HF-treated T cells were examined. HF induced detectable eIF2α phosphorylation at 2.5 nM, and this effect plateaued at 5-10 nM HF (FIG. 12D). […] AAR activation was a general consequence of HF treatment: HF induced eIF2α phosphorylation not only in T cells activated in Th17-priming conditions, but also in resting naïve T cells and T cells activated in ThN, Th1, Th2 and iTreg polarizing conditions (FIG. 12F). […] (Rathmell, J. C., Elstrom, R. L., Cinalli, R. M. & Thompson, C. B. Activated Akt promotes increased resting T cell size, CD28-independent T cell growth, and development of autoimmunity and lymphoma. Eur J Immunol 33, 2223-32 (2003)). Thus, the rapid activation of the AAR pathway by HF underlies both its selective inhibition of Th17 differentiation and its effects on fibroblasts. (Pines, M. & Nagler, A. Halofuginone: a novel antifibrotic therapy. Gen Pharmacol 30, 445-50 (1998)).
(In general: Immunoblotting shows a protein as a band on a membrane.)

For series [2], the system named is anti-CD3 activated human peripheral blood T cells. Particulars: cited from earlier work.

On to `O=C(CC1NCCCC1O)Cn1cnc2cc(Br)c(Cl)cc2c1=O` (racemic) [HF, 7-bromo-6-chloro-3-[3-(3-hydroxy-2-piperidinyl)-2-oxopropyl]-4(3H)-quinazolinone], for which, in the series with Jurkat T cells, the “apoptosis (Annexin V+ PI−) of Jurkat T cells, in words” value is “caused significant apoptosis”. In series [1] (10 nM HF), the “time at which eIF2α phosphorylation reached maximum levels” value was at most 2 h and the “time until which ATF4 protein continued to accumulate” value is 4 h. Further, in series [1] (4 hours post TCR activation), the “concentration at which eIF2α phosphorylation plateaued” value was in the range of 5 to 10 nM, the “concentration giving highest ATF4 expression levels” value is 5 to 10 nM, the “concentration inducing detectable eIF2α phosphorylation” value is reported as 2.5 nM and the “higher concentrations at which ATF4 expression levels were reduced” value lay within 20 to 40 nM. The “NFkB activation and T-cell secretion of cytokines, in words” value in series [2] (80 nM HF, crude preparation of primary T-cells (Leiba et al.)) was “broadly suppress NFkB activation and T-cell secretion of cytokines”. For the same compound, the IC50 in series [2] (Lieba et al., read-out: concentration for 50% inhibition of cytokine secretion, NF-kB activation and p38 phosphorylation) is 20 to 40 nM.
